Assay results as given in patent US7534762B2, “Polypeptides having antimicrobial activity and polynucleotides encoding same” (Novozymes A/S, priority 2005, dated 2009).

What was measured:
Assay in all cases: Radial diffusion assay
Assay type in all cases: cell-based
[1] = tested on: Pseudomonas boreopolis (ATCC 15452); settings: TCA precipitated culture supernatant, 100 x concentrated; 10 units = 1 mm diameter clear zone around the 3 mm sample well
Protocol: (§1) The supernatants described above in Example 4 were analyzed in a radial diffusion assay following a previously published protocol for detection of antimicrobial activity (Lehrer et al., (1991) Ultra sensitive assays for endogenous antimicrobial polypeptides J Immunol Methods 137: 167-173). Target bacteria (10^6 colony forming units (CFU)) were added to 10 ml of underlay agarose (1% low electro-endosmosis agarose, 0.03% Trypticase soy broth, 10 mM sodium phosphate, pH 7.4, 37 degrees Celsius). Suspension was solidified on an INTEGRID Petri Dish (Becton Dickinson Labware, NJ). A 3 mm Gel Puncher was used to make holes in the underlay agarose (Amersham Pharmacia Biotech, Sweden). Samples were added to the holes and incubated at 37 degrees Celsius, 3 hours. An overlay was poured on top and the plate was incubated overnight (LB media, 7.5% Agar). Antimicrobial activity was seen as bacterial clearing zones around the wells. Living cells was counterstained by adding 10 ml, 0.2 mM MTT (3-(4,5-Dimethylthiazol-2-yl)-2,5-diphenyltetrazolium bromide Thiazolyl blue). All standard protocols have been described elsewhere (Sambrook, Fritsch, and Maniatis, 1989). An electronic picture is taken. The bacterial growth inhibition is seen as clearing zones, which are measured to the nearest 0.1 mm and subtracted the diameter of the hole. The results are shown as zones of inhibition of native samples (Table 3) and concentrated samples (Table 4) against a range of test strains: • A: Staphylococcus simulans (ATCC 11631) • B: Staphylococcus carnosus (ATCC 51365) • C: Streptococcus hyointestinalis (ATCC 49169) • D: Bacillus subtilis (ATCC 23857) • E: Enterococcus saccharolyticus (ATCC 43076) • F: Escherichia coli (ATCC 10536) • G: Acinetobacter anitratus (ATCC 17903) • H: Erwinia chrysanthemi (ATCC 11663) • J: Pseudomonas boreopolis (ATCC 15452)
(§2) Concentration of samples was performed by precipitation of 45 ml culture supernatant with 2.5 ml 100% TCA and resuspension of the pelleted precipitate in 450 μl resuspension buffer (100 mM Tris pH 8, 100 mM NaCl).

[2] = tested on: Erwinia chrysanthemi (ATCC 11663); settings: TCA precipitated culture supernatant, 100 x concentrated; 10 units = 1 mm diameter clear zone around the 3 mm sample well
Protocol: as §1, §2

[3] = tested on: Enterococcus saccharolyticus (ATCC 43076); settings: 10 units = 1 mm diameter clear zone around the 3 mm sample well
Protocol: as §1, §2

[4] = tested on: Bacillus subtilis (ATCC 23857); settings: 10 units = 1 mm diameter clear zone around the 3 mm sample well
Protocol: as §1, §2

[5] = tested on: Staphylococcus carnosus (ATCC 51365); settings: 10 units = 1 mm diameter clear zone around the 3 mm sample well
Protocol: as §1, §2

[6] = tested on: Acinetobacter anitratus (ATCC 17903); settings: TCA precipitated culture supernatant, 100 x concentrated; 10 units = 1 mm diameter clear zone around the 3 mm sample well
Protocol: as §1, §2

[7] = tested on: Escherichia coli (ATCC 10536); settings: TCA precipitated culture supernatant, 100 x concentrated; 10 units = 1 mm diameter clear zone around the 3 mm sample well
Protocol: as §1, §2

[8] = tested on: Staphylococcus simulans (ATCC 11631); settings: TCA precipitated culture supernatant, 100 x concentrated; 10 units = 1 mm diameter clear zone around the 3 mm sample well
Protocol: as §1, §2

[9] = tested on: Streptococcus hyointestinalis (ATCC 49169); settings: 10 units = 1 mm diameter clear zone around the 3 mm sample well
Protocol: as §1, §2

[10] = TCA precipitated culture supernatant, 100 x concentrated
[11] = native culture supernatant of recombinant A. oryzae clone

| Substance | zone of inhibition, test strain J [1] [units] | zone of inhibition, test strain H [2] [units] | zone of inhibition, test strain E [3, 10] [units] | zone of inhibition, test strain E [3, 11] [units] | zone of inhibition, test strain D [4, 10] [units] | zone of inhibition, test strain D [4, 11] [units] | zone of inhibition, test strain B [5, 10] [units] | zone of inhibition, test strain B [5, 11] [units] | zone of inhibition, test strain G [6] [units] | zone of inhibition, test strain F [7] [units] | zone of inhibition, test strain A [8] [units] | zone of inhibition, test strain C [9, 10] [units] | zone of inhibition, test strain C [9, 11] [units] |
| --- | --- | --- | --- | --- | --- | --- | --- | --- | --- | --- | --- | --- | --- |
| Marinasin 1B: Arenicola marina antimicrobial polypeptide, amino acids 1 to 49 of SEQ ID NO: 8, expressed in Aspergillus oryzae (MKFFLPIMIALAFAAVAMATADTEPVEPEEELSIMLPFVEDDLLEKPIP; listed as Arenicola marina) | 28 | 25 | 30 | 9 | 28 | 10 | 25 | 21 | 26 | 25 | 22 | 22 | 10 |
| Marinasin 2A: Arenicola marina antimicrobial polypeptide, amino acids 1 to 46 of SEQ ID NO: 12, expressed in Aspergillus oryzae (MNQITLLMLLVAVAVMATVTGQSLDDESDVENVSQPEQRGWCWQWT; listed as Arenicola marina) | 39 | 40 | 41 | 14 | 38 | 16 | 35 | 26 | 39 | 25 | 34 | 35 | 12 |
| Marinasin 4: Arenicola marina antimicrobial polypeptide, amino acids 1 to 45 of SEQ ID NO: 22, expressed in Aspergillus oryzae (MKPIILLMLLVAVVVMATVTAEPLDEESDVEIVSQPEQRIPCWTP; listed as Arenicola marina) | 0 | 0 | 68 | 43 | 32 | 32 | 81 | 60 | 6 | 0 | 14 | 59 | 54 |
| Marinasin 5: Arenicola marina antimicrobial polypeptide, amino acids 1 to 49 of SEQ ID NO: 24, expressed in Aspergillus oryzae (MKFLLPLMVVMAFAAVAMATADTEPVEREEGVFIMLPFVEDDMLEKPIL; listed as Arenicola marina) | 22 | 26 | 23 | – | 25 | – | 13 | – | 26 | 19 | 22 | 24 | – |
| Marinasin 6: Arenicola marina antimicrobial polypeptide, amino acids 1 to 44 of SEQ ID NO: 26, expressed in Aspergillus oryzae (MTTLLLMFGVAIVVLATVAAVPLQDDDVLDPSGLVEGETRGRSC; listed as Arenicola marina) | – | – | – | 40 | – | 39 | – | – | – | – | – | – | 45 |
